For one test, the target named is T1, Metabotropic glutamate receptor 1 (Rattus norvegicus, UniProt P23385). Description: Inhibition of rat mGluR1a in CHO cells by CDP-DAG accumulation method upto 100 uM. It counts as functional, cell-based.
T1 sequence (P23385 whole entry): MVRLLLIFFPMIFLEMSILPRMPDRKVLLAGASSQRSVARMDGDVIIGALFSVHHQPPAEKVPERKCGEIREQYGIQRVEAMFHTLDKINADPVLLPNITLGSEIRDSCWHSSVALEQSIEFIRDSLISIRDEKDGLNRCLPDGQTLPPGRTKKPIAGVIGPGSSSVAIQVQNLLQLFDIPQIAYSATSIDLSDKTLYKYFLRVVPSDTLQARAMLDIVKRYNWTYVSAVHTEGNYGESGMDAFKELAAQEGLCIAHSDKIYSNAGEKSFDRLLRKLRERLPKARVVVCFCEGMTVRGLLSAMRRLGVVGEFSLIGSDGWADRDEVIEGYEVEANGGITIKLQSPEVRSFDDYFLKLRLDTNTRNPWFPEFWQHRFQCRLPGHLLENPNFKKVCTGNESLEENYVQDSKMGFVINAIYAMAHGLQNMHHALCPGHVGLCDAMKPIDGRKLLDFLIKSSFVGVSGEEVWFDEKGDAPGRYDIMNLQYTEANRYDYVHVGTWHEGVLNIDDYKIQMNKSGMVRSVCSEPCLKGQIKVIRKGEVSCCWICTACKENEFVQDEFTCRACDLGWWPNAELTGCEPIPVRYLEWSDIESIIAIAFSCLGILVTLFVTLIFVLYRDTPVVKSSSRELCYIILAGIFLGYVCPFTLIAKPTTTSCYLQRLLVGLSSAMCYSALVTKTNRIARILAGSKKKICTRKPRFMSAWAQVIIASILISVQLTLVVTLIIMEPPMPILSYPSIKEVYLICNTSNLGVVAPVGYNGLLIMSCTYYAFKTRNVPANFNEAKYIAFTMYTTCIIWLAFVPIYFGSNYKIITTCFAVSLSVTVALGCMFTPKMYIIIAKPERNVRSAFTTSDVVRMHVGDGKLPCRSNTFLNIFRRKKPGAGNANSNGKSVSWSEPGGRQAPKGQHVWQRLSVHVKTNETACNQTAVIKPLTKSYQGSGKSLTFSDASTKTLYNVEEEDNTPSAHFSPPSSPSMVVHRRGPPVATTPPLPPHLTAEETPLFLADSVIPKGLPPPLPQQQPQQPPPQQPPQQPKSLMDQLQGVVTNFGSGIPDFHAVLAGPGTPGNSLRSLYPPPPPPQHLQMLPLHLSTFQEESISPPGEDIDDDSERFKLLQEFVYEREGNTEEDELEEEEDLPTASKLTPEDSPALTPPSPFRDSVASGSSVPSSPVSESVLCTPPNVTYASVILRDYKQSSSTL
Turning to `Cc1c(C(=O)OC(C)C(C)(C)C)cn2c1C(=O)N(CCCN)CC2` (stereo unspecified), the IC50 (usually the concentration needed to halve the response being measured) is listed as “Not Active”.

As for `Cc1c(C(=O)OC(C)C(C)(C)C)cn2c1C(=O)NCC2` (stereo unspecified), the IC50 entry was “Not Active”.

A further test deals with T1, Metabotropic glutamate receptor 1. Briefly: Inhibition of rat mGluR1a in CHO cells by CDP-DAG accumulation method. It counts as functional, cell-based.
For `Cc1c(C(=O)OC(C)C(C)(C)C)cn2c1C(=O)N(CCF)CC2` (stereo unspecified), the IC50 was 20 nM.

Molecule `Cc1c(C(=O)OC(C)C(C)(C)C)cn2c1C(=O)N(CC1CC1)CC2` (stereo unspecified) gave an IC50 of 20 nM.

With `Cc1c(C(=O)OC(C)C(C)(C)C)cn2c1C(=O)N(CCCN(C)C(=O)c1ccncc1)CC2` (stereo unspecified), the IC50 was 3160 nM.

`Cc1c(C(=O)OC(C)C(C)(C)C)cn2c1C(=O)N(N1CCOCC1)CC2` (stereo unspecified): it took 3160 nM to reach half-maximal inhibition (IC50).

As for `Cc1c(C(=O)OC(C)C(C)(C)C)cn2c1C(=O)N(CCCNC(=O)c1ccncc1)CC2` (stereo unspecified), the IC50 is 398 nM.

With `Cc1c(C(=O)OC(C)C(C)(C)C)cn2c1C(=O)N(CC(F)F)CC2` (stereo unspecified), the IC50 is 25.1 nM.

Turning to `CCCN1CCn2cc(C(=O)OC(C)C(C)(C)C)c(C)c2C1=O` (stereo unspecified), the IC50 is 39.8 nM.

With `COCCN1CCn2cc(C(=O)OC(C)C(C)(C)C)c(C)c2C1=O` (stereo unspecified), 251 nM corresponded to half-maximal inhibition (IC50).

Take `CC(=O)NCCCN1CCn2cc(C(=O)OC(C)C(C)(C)C)c(C)c2C1=O` (stereo unspecified): half-maximal inhibition (IC50) was put at 501 nM.

Take `CCNC(=O)NCCCN1CCn2cc(C(=O)OC(C)C(C)(C)C)c(C)c2C1=O` (stereo unspecified): the IC50 was 398 nM.

As to `Cc1c(C(=O)OC(C)C(C)(C)C)cn2c1C(=O)N(CCNC(=O)OC(C)(C)C)CC2` (stereo unspecified), the midpoint of inhibition, the IC50, lay at 398 nM.

In turn, `C=CCN1CCn2cc(C(=O)OC(C)C(C)(C)C)c(C)c2C1=O` (stereo unspecified) had an IC50 of 20 nM.

As to `Cc1c(C(=O)OC(C)C(C)(C)C)cn2c1C(=O)N(CCCN1C(=O)c3ccccc3C1=O)CC2` (stereo unspecified), the IC50 is 15.8 nM.

The molecule `Cc1c(C(=O)OC(C)C(C)(C)C)cn2c1C(=O)N(Cc1ccccc1)CC2` (stereo unspecified) gave a 50% inhibitory concentration (IC50) of 251 nM.

The values above are taken from ChEMBL document CHEMBL1138979, “From pyrroles to pyrrolo[1,2-a]pyrazinones: a new class of mGluR1 antagonists” (Bioorg Med Chem Lett, 2006).
